{"source": "patent US9856534B2", "about": "“Selecting use of proteasome inhibitors based on NF-κB2 sequence” (Emory University, priority 2011, dated 2018)", "assay_type_in_all_cases": "cell-based", "key": {"KMS11": {"system": "KMS11", "assay": "Bortezomib sensitivity of MM cell line KMS11"}, "[1]": {"system": "Daudi and Raji lymphoma cell lines", "assay": "Apoptosis by flow cytometry (Annexin V) in lymphoma cell lines expressing p100 siRNA, treated with bortezomib", "procedure": "(A) Two lymphoma cell lines, Daudi and Raji, expressing a p100 or a p105 siRNA were treated with titrating doses of bortezomib for 24 hours. […] Expression of p100 siRNA in two lymphoma cell lines, Daudi and Raji, reduce the protein levels of cleaved caspase 3 and 9. Western blot of Daudi and Raji cell lines expression p100 siRNA or luciferase were performed after 24 hours of treatment with titrating does of bortezomib.\nSequences of NF-κB2-shRNA are known. The sense shRNA oligonucleotide probes were as follows: p100, […] (SEQ ID NO: 12). Luciferase (Luc) shRNA plasmid was provided by S. Stewart. Short interfering hairpin RNA were expressed under U6 human promoter and were generated using PLKopuro.1. NF-κB2, NF-κB2-ankirin repeats region, NF-κB2-death domain and LcZ (control) were expressed under a CMV promoter and generated using a pLenti6/V5-DEST (Invitrogen Life Technologies). Recombinant lentiviruses were generated in 293T cells, for infection of all MM cell lines. Stable cell lines expressing shRNAs or the protein of interest were obtained after selecting cells with 2 μg/mL puromycin or 10 μg/mL, respectively. Cells were used for experiments two weeks after infection."}, "RPMI": {"system": "RPMI", "assay": "Bortezomib sensitivity of MM cell line RPMI"}, "NF-κB": {"system": "NF-κB", "assay": "NF-κB-luciferase reporter assay", "details": "Daudi and SC lymphoma cell lines; titrating doses, 24 hours", "procedure": "Daudi and SC cell lines were transfected with a NF-κB-luciferase reporter construct (1 μg of DNA). Twenty four hours post-transfection, cells were treated with titrating doses of bortezomib. After 24 hours of treatment, cells were harvested and lysed with RIPA buffer. Twenty microliters of the lysate were mixed with Luciferase assay substrate (Promega, Madison, Wis.) followed by Stop & Glo reagent. Luciferase activity was then measured in a luminometer."}, "[2]": {"system": "OPM and KMS11 multiple myeloma cell lines", "assay": "Live cell count (Yo-pro-1 iodide/PI negative) in MM cell lines stably expressing NF-κB2 constructs, treated with bortezomib", "details": "titrating doses, 24 hours; live cells", "procedure": "A) Two multiple myeloma cell lines, OPM and KMS11, stably expressing the full length NF-κB2 (p100), NF-κB2-ankyrin domains, NF-κB2-death domain were generated using a pLenti6.2/V5-DEST lentivirus. Cells were then treated at titrating doses of bortezomib. After 24 hours the cells were harvested and stained with Yo-pro-1 iodide and propidium Iodide (PI, both from Invitrogen, Grand Island, N.Y.). Live cells were measured using a ImageXpress 5000A Automated Acquisition and Analysis System (Molecular Devices, Sunnyvale, Calif.), quantitating for Yo-pro-1 iodide and PI negative cells. B) OPM1 and RPMI cells stably expressing NF-κB2 (p100), NF-κB2-ankyrin domains or control vector (LacZ) were treated with 10 nM of bortezomib for 24 hours. Cells were harvested and Western blot was performed to assay for caspase 9, cleaved caspase 9 and 3 and actin.\nFor apoptosis studies, 10^4 cells were treated with titrating doses of doxorubicin (doses: […], Sigma) or rituximab (titrating doses: 1.5, 2.5, 5, 10 and 20 μg/mL, Biogen Idec Inc). Twenty four hours later cells were stained with Yo-pro-1 and Propidium Iodide (Invitrogen). Live cells were measured using a ImageXpress 5000A Automated Acquisition and Analysis System (Molecular Devices, Sunnyvale, Calif.), quantitating for Yo-pro-1 or PI negative cells.\nSequences of NF-κB2-shRNA are known. […]"}}, "data": [{"smiles": "CC(C)C[C@H](NC(=O)[C@H](Cc1ccccc1)NC(=O)c1cnccn1)B(O)O", "note": "[bortezomib]", "values": [{"measurement": "bortezomib sensitivity of cell line", "setting": "KMS11", "result": "resistant"}, {"measurement": "bortezomib sensitivity of lymphoma cells", "setting": "[1]", "result": "sensitive"}, {"measurement": "bortezomib-induced apoptosis on p100 siRNA expression", "setting": "[1]; titrating doses, 24 hours, Annexin V", "result": "reduces"}, {"measurement": "bortezomib sensitivity of cell line", "setting": "RPMI", "result": "resistant"}, {"measurement": "effect on NF-kB luciferase reporter activity", "setting": "NF-κB", "result": "NF-kB inhibitory effects"}, {"measurement": "sensitivity to bortezomib on expression of p100 (NF-κB2), NF-κB2-ankyrin domains and NF-κB2-death domain", "setting": "[2]", "result": "restores sensitivity"}]}]}
